According to patent US20260206761A1, “HETEROARYL-TRIAZOLE COMPOUNDS AS PESTICIDES” (Bayer Aktiengesellschaft, priority 2019, published 2026):

Assays:
Format in all cases: in vivo
[1] = test system: adult brown dog ticks (Rhipicephalus sanguineus); experiment: Rhipicephalus sanguineus in-vitro contact test, adult brown dog ticks; settings: after 48 hours, read-out: activity (efficacy: ticks dead or moribund); for pest or weed control at 100 g/ha: application rate 1 pg/cm^2 (=100 g/ha); for pest or weed control at 5 µg/cm2, 500 g/ha: application rate 5 μg/cm^2 (=500 g/ha)
Procedure, shortened: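 Read-out: % efficacy as dead or moribund ticks, judged 48 h after exposure by failure to climb away from a 45-50° C heating plate within 5 min. Tubes were coated with acetone solution (900 ppm = 5 μg/cm^2 surface dose) and held 5-10 adults each at room temperature.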

[2] = test system: cattle ticks (Rhipicephalus microplus) strain Parkhurst, SP-resistant; experiment: Rhipicephalus (Boophilus) microplus dip test; settings: 168 h, application rate 100 ppm, egg deposition after 7 days, read-out: activity (efficacy: infertile eggs)
Description: Rhipicephalus (Boophilus) microplus—Din Test
Test animal: cattle ticks (Rhipicephalus microplus) strain Parkhurst, SP-resistant
Solvent: dimethyl sulfoxide
To produce a suitable preparation of active compound, 10 mg of active compound are dissolved in 0.5 mL solvent, and the concentrate is diluted with water to the desired concentration.
This compound solution is pipetted into tubes. 8-10 engorged, adult, female cattle ticks (Rhipicephalus microplus) are placed in perforated tubes. These tubes are immersed in the aqueous compound solution until the ticks are completely moistened. After the liquid has drained off, the ticks are transferred to a filter paper in a plastic tray and stored in a climate chamber.
After 7 days egg deposition of fertile eggs is monitored. Eggs where fertility is not visible are stored in a climate chamber till hatching after about 42 days. An efficacy of 100% means all eggs are infertile; 0% means all eggs are fertile.

[3] = test system: Musca domestica strain WHO-N; experiment: Musca domestica test (MUSCDO surface treatment & contact assay); settings: 24 hours after contact, read-out: efficacy (mortality); for mortality at 4 mg/m2: surface concentration 4 mg/m^2, exposure 30 minutes; for mortality at 20 mg/m2: surface concentration 20 mg/m^2, exposure 30 minutes
Procedure, shortened: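 Compound dissolved at 2 mg/ml in acetone with 2000 ppm rapeseed oil methyl ester and pipetted onto a glazed tile. After the acetone evaporated, adult WHO-N flies were exposed to the dried surface for 30 min, with % mortality scored 24 h after contact.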

[4] = test system: green peach aphid (Myzus persicae); experiment: Myzus persicae oral test; settings: 120 h, application rate 4 ppm, after 5 days
Procedure, shortened: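 Aphids of mixed population ingest the compound preparation by sucking through a parafilm sheet stretched over wells holding test solution plus IPL41 insect medium (33%+15% sugar). Kill rate in percent is determined five days later.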

[5] = test system: brown planthopper (Nilaparvata lugens); experiment: Nilaparvata lugens spray test; settings: 96 h, after 4 days; for mortality at 100 g/ha: application rate 100 g/ha; for mortality at 500 g/ha: application rate 500 g/ha
Procedure, shortened: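 Compound dissolved in acetone/dimethylformamide and diluted in water with 1000 ppm alkylarylpolyglycol ether emulsifier. Rice plants sprayed at the test concentration, then infested with brown planthopper; % mortality read after 4 days (100% = all killed, 0% = none).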

[6] = test system: adult engorged female ticks (Rhipicephalus microplus); experiment: Rhipicephalus (Boophilus) microplus injection test; settings: 168 h, egg deposition after 7 days, read-out: activity (efficacy: infertile eggs); for pest or weed control at 4 pg: application rate 4 pg/animal; for pest or weed control at 0.02 mg: application rate 20 μg/animal
Procedure, shortened: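 Abdominal injection, 1 μL compound/DMSO, n=5 engorged adult females; climate-chamber incubation. Readout d7: fertile egg laying; doubtful eggs held to hatch (~42 d). % efficacy = infertile eggs (100% all infertile).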

[7] = test system: Anopheles funestus strain FUMOZ-R; experiment: Anopheles funestus test (ANPHFU surface treatment & contact assay); settings: 24 hours after contact, read-out: efficacy (mortality); for mortality at 20 mg/m2: surface concentration 20 mg/m^2, exposure 30 minutes; for mortality at 4 mg/m2: surface concentration 4 mg/m^2, exposure 30 minutes
Procedure, shortened: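 Compound dissolved in acetone at 2 mg/ml with 2000 ppm RME, pipetted onto glazed tile; acetone evaporated. Adult FUMOZ-R mosquitoes exposed to dried surface for 30 min. Percent mortality scored 24 h after contact.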

[8] = test system: Culex quinquefasciatus strain P00; experiment: Culex quinquefasciatus test (CULXFA surface treatment & contact assay); settings: 24 hours after contact, read-out: efficacy (mortality); for mortality at 20 mg/m2: surface concentration 20 mg/m^2, exposure 30 minutes; for mortality at 4 mg/m2: surface concentration 4 mg/m^2, exposure 30 minutes
Procedure, shortened: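 Compound in acetone (2 mg/ml) with 2000 ppm rapeseed oil methyl ester, dried onto glazed tile. Adult mosquitoes exposed to the treated surface for 30 min. Percent mortality scored 24 h after contact.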

Structure (SMILES) | pest or weed control at 100 g/ha [1] | pest or weed control at 5 µg/cm2, 500 g/ha [1] | pest or weed control at 100 ppm [2] | mortality at 4 mg/m2 [3] | mortality at 20 mg/m2 [3] | mortality at 4 ppm [4] | mortality at 100 g/ha [5] | pest or weed control at 4 pg [6] | pest or weed control at 0.02 mg [6] | mortality at 20 mg/m2 [7] | mortality at 20 mg/m2 [8] | mortality at 500 g/ha [5] | mortality at 4 mg/m2 [8] | mortality at 4 mg/m2 [7]
Cc1nc([C@H](C)NC(=O)c2cc(C(F)(F)F)cc(C3(C#N)CC3)c2)n(-c2ccc(C#N)cn2)n1 [II-49] | 100% | 100% | 100% | 80 to 100% | 80 to 100% | 100% | 100% | 100% | 100% | 80 to 100% | – | – | – | –
C[C@H](NC(=O)c1cc(OC(F)(F)F)cc(C2CC2)c1)c1ncnn1-c1ccccn1 [II-22] | – | – | – | 80 to 100% | 80 to 100% | 100% | – | 100% | 100% | – | 80 to 100% | 90% | – | –
Cc1nc([C@H](C)NC(=O)c2cc(C(F)(F)F)n(C)n2)n(-c2ncccn2)n1 [II-25] | 100% | 100% | – | 80 to 100% | 80 to 100% | – | – | 100% | 100% | 80 to 100% | 80 to 100% | 90% | 80 to 100% | 80 to 100%
C[C@H](NC(=O)c1cc(Cl)cc(S(C)(=O)=O)c1)c1nc(C2CC2)nn1-c1ccc(C#N)cn1 [I-4] | – | – | 100% | – | – | 100% | – | 100% | 100% | – | – | – | – | –
C[C@H](NC(=O)c1cc(C#N)cc(C2CC2)c1)c1ncnn1-c1ncccn1 [II-54] | 100% | – | – | – | – | 100% | 100% | – | – | 80 to 100% | – | – | – | –
C[C@H](NC(=O)c1cc(C(F)(F)F)cc(C2(C#N)CC2)c1)c1ncnn1-c1ccc(Cl)cn1 [II-48] | 100% | 100% | 100% | 80 to 100% | 80 to 100% | 100% | – | 100% | 100% | 80 to 100% | – | – | – | 80 to 100%
C[C@H](NC(=O)c1cc(Cl)cc(S(=O)(=O)C(F)F)c1)c1ncnn1-c1ncccn1 [II-34] | 100% | 100% | – | – | 80 to 100% | 100% | 100% | 100% | 100% | 80 to 100% | 80 to 100% | 100% | 80 to 100% | 80 to 100%
C[C@H](NC(=O)c1cc(C#N)cc([S+](C)[O-])c1)c1ncnn1-c1ccc(C#N)cn1 (stereo partly drawn) [II-12] | – | – | – | – | – | 100% | 100% | 100% | 100% | 80 to 100% | 80 to 100% | 100% | 80 to 100% | 80 to 100%
C[C@H](NC(=O)c1cc(Cl)cc(S(C)(=O)=O)c1)c1ncnn1-c1ncc(OC(F)F)cn1 [II-42] | 100% | 100% | 100% | – | – | 100% | – | 100% | 100% | 80 to 100% | 80 to 100% | – | 80 to 100% | 80 to 100%
C[C@H](NC(=O)c1cc(C(F)(F)F)cc(C2(C#N)CC2)c1)c1ncnn1-c1ccc(C#N)cn1 [II-47] | 100% | 100% | 100% | 80 to 100% | 80 to 100% | 100% | – | 100% | 100% | 80 to 100% | – | – | – | 80 to 100%
C[C@H](NC(=O)c1cc(OC(F)(F)F)cc(C2CC2)c1)c1ncnn1-c1ccc(Cl)cn1 [II-23] | 100% | 100% | – | 80 to 100% | 80 to 100% | – | – | 100% | 100% | 80 to 100% | 80 to 100% | – | 80 to 100% | –
Cc1nc([C@H](C)NC(=O)c2cc(OC(F)(F)F)cc(C3CC3)c2)n(-c2ccc(C#N)cn2)n1 [II-39] | 100% | 100% | 100% | 80 to 100% | 80 to 100% | 100% | – | 100% | 100% | – | 80 to 100% | – | – | –
Cc1nc([C@H](C)NC(=O)c2cc(C(F)(F)F)cc(S(C)(=O)=O)c2)n(-c2ccc(C#N)cn2)n1 [II-52] | 100% | 100% | – | 80 to 100% | 80 to 100% | – | 100% | 100% | – | – | – | – | – | –
CC(NC(=O)c1cc(C(F)(F)F)cc(S(C)(=O)=O)c1)c1nc(Cl)nn1-c1ncccn1 (stereo not drawn) [I-30] | 100% | 100% | – | – | 80 to 100% | 100% | 100% | 100% | 100% | 80 to 100% | – | – | – | 80 to 100%
